The values below come from patent US10800755B2, “2,6-disubstituted pyridine derivative” (Sumitomo Dainippon Pharma Co., Ltd., priority 2017, dated 2020).

Data set [1] can be described thus: Test 4-2: predictive test of human half-life (monkey distribution volume, serum unbound fraction, Test 3-2 stability). As to conditions: in vivo, predicted using Test 3-2 metabolic stability. How it is done: Test 4-2: Predictive Test of Human Half-Life
(§1) 0.01 mol/L of the present compound in aqueous hydrochloric acid solution was parenterally administered to cynomolgus monkey. 5 minutes, 15 minutes, 30 minutes, 1 hour, 2 hours, 4 hours, 6 hours, and 24 hours after the administration, the blood was collected. The plasma was obtained from the collected blood, the drug concentration in the plasma was measured with a LC-MS, and the monkey distribution volume was calculated from the transition of the concentrations. The unbound fraction rate of the present compound in serum of human and monkey was measured by equilibrium dialysis method.
Using the monkey distribution volume, the unbound fraction rate in serum of human and monkey, and the result of the metabolic stability of human liver microsome which was obtained in Test 3-2, the half-life in human was calculated according to the formula below. “Human distribution volume”=“monkey distribution volume”×“unbound fraction rate in serum of human”/“unbound fraction rate in serum of monkey” “Human hepatic clearance”=(“human hepatic blood flow”×“unbound fraction rate in serum of human”×56.7×“metabolic stability of human liver microsome”)/(“human hepatic blood flow”+“unbound fraction rate in serum of human”×56.7×“metabolic stability of human liver microsome”) “Half-life in human”=0.693×“human distribution volume”/“human hepatic clearance”

The target of data set [2] is T1, human 5-HT1A receptor (Homo sapiens (Human), UniProt P08908). As to the kind of experiment: Test 2: binding activity to human 5-HT1A receptor ([3H] 8-OH-DPAT, CHO cell membrane). Conditions: [3H] 8-OH-DPAT; read-out: 5-HT1A binding affinity (Ki value).
T1 sequence (P08908 whole entry): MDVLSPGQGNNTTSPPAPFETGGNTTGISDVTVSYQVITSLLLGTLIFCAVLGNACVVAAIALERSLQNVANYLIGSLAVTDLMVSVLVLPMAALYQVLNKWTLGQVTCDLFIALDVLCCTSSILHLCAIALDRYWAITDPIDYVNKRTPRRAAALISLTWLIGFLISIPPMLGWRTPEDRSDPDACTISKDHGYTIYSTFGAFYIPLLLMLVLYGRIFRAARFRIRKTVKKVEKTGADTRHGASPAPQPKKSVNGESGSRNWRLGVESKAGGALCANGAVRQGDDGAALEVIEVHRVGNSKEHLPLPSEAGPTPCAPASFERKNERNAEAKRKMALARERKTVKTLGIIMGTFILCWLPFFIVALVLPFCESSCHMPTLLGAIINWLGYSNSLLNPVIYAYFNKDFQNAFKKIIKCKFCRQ
Data set [3] can be described thus: Test 3-2: metabolic stability test of human liver microsome (0.5 or 1.0 mg/mL). Type of data set: in vitro ADME. Conditions: test compound 0.1 μmol/L, 37° C., 30 minutes. How it is done: Test 3-2: Metabolic Stability Test of Human Liver Microsome
In order to evaluate the metabolic stability of human liver microsomes more precisely, the stability of the present compounds for human liver microsome metabolism was evaluated with a suitable concentration of human liver microsome, as mentioned below. The used human liver microsome was obtained from Xenontech. Human liver microsome, NADPH, and each test compound were mixed in 25 mmol/L phosphate buffer solution (pH 7.4) to adjust each concentration as shown below, and the mixture was incubated at 37° C. for 30 minutes. • human liver microsome: 0.5 or 1.0 mg/mL • NAPDH: 3.2 mmol/L • test compound: 0.1 μmol/L
The residual ratio of the test compound in each sample after the incubation for 30 minutes was measured with a LC-MS, and the metabolic stability of human liver microsome was calculated about each test compound with the following formula. Metabolic stability of human liver microsome (mL/min/mg protein)=−LN (residual ratio)/“reaction time”/“concentration of human liver microsome”

For data set [4], the target named is T2, human D4 receptor (Homo sapiens (Human), UniProt P21917). The data set can be described thus: Test 1: agonistic activity for human D4 receptor (aequorin/Gα16 luminescence in CHO-K1 cell). It counts as cell-based.
T2 sequence (P21917 whole entry): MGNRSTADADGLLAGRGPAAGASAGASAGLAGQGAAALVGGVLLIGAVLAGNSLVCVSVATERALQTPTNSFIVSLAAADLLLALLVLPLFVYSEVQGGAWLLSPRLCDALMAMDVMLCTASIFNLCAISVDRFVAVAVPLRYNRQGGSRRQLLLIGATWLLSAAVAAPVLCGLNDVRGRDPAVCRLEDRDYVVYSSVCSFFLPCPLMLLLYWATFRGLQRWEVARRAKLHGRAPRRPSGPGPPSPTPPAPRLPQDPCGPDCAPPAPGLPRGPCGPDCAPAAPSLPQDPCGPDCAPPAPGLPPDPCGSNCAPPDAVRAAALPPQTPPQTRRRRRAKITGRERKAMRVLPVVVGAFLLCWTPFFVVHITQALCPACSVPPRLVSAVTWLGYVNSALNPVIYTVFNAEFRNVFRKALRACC
Data set [5] is described as follows: Test 4-1: predictive test of human half-life (monkey distribution volume, serum unbound fraction, Test 3-1 stability). Conditions: in vivo, predicted using Test 3-1 metabolic stability. How it is done: Test 4-1: Predictive Test of Human Half-Life
as §1
Using the monkey distribution volume, the unbound fraction rate in serum of human and monkey, and the result of the metabolic stability of human liver microsome which was obtained in Test 3-1, the half-life in human was calculated according to the formula below. “Human distribution volume”=“monkey distribution volume”×“unbound fraction rate in serum of human”/“unbound fraction rate in serum of monkey” “Human hepatic clearance”=(“human hepatic blood flow”×“unbound fraction rate in serum of human”×56.7×“metabolic stability of human liver microsome”)/(“human hepatic blood flow”+“unbound fraction rate in serum of human”×56.7×“metabolic stability of human liver microsome”) “Half-life in human”=0.693×“human distribution volume”/“human hepatic clearance”

Data set [6] concerns Wistar male rat. As to the kind of experiment: Test 9: microdialysis test (release amount of intracerebral monoamine, orbitofrontal cortex). Type of data set: in vivo. As to conditions: combination administration with sertraline or single administration. How it is done: Test 9: Microdialysis Test
The effect of the present compound for the release amount of intracerebral monoamine was evaluated in a manner mentioned below.
8-Week-old Wistar male rat was fixed on a brain stereotaxic apparatus under anesthesia. The scalp was incised, the subcutaneous tissue was removed, the position of the bregma was measured, and the installation position of a guide cannula was calculated (the position of the orbitofrontal cortex which defined according to the brain stereotaxic coordinates of Paxinos & Watson (2.0 mm right, 4.2 mm anterior from bregma)). The skull was drilled with a dental drill at the installation position of the guide cannula, and an anchor screw was set about 1 cm posterior to the hole. The guide cannula was set and fixed with a dental cement, and then the scalp was sutured. The animal was released from the brain stereotaxic apparatus, and was moved back to the breeding cage. In the event of the test, the rat was put in an acrylic observable cage, and a dialysis probe was inserted along the guide cannula to connect to a free-moving tube. With an infusion pump, Ringer solution was perfused at 2 μL/min, and the dialysis solution was recovered at 20-minute intervals. […] The recovered dialysis solutions were analyzed with a HPLC-ECD system to determine the contents of norepinephrine (NE), dopamine (DA), and serotonin (5-HT).

Data set [7] addresses T2, human D4 receptor. The data set can be described thus: Test 2: binding activity to human D4 receptor ([3H] dopamine, CHO cell membrane).
Data set [8] has as its target T1, human 5-HT1A receptor. As to the kind of experiment: Test 1: agonistic activity for human 5-HT1A receptor (aequorin/Gα16 luminescence in CHO-K1 cell). Type of data set: cell-based. The procedure, abridged: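 Aequorin and Gα16 transiently co-expressed with each receptor in CHO-K1 cells, cultured 24 h at 37 °C. Compounds added from DMSO solution; agonism read as change in luminescence.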

Data set [9] has as its target human D2 receptor (Homo sapiens (Human), UniProt P14416). The data set can be described thus: Test 2: binding activity to human D2 receptor ([3H] spiperone, CHO cell membrane). Conditions: [3H] spiperone; read-out: D2 binding affinity (Ki value).
The mark [10] stands for this setting: CHO-K1, 100% = 10 μmol/L endogenous ligand.
The mark [11] stands for this setting: CHO-K1 cell, aequorin luminescence.

Chain of human D2 receptor (P14416 whole entry): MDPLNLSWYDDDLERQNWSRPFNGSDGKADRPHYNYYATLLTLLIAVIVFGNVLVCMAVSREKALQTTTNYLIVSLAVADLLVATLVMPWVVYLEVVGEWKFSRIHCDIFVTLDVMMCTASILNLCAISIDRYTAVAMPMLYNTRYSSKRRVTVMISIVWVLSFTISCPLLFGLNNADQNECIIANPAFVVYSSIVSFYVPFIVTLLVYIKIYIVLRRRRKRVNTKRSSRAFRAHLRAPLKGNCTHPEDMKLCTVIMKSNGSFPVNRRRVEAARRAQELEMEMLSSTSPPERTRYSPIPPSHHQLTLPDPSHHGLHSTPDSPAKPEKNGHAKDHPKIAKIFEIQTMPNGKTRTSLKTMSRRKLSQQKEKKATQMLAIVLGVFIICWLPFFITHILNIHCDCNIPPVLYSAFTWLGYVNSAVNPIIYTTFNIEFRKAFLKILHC

Broadly, the half-life is the time needed for the level to fall by half in the phase considered. What is called Ki is the dissociation constant of the complex between target and ligand, obtained from inhibition or displacement. By Emax is commonly meant the greatest response seen or fitted, relative to the assay's reference. As usually defined, the EC50 is the midpoint of the concentration-response curve. For the compound `O=C(NCCN1CCC(c2cccc(C(F)(F)F)n2)CC1)C1CCOCC1` [Example 11, N-(2-{4-[6-(Trifluoromethyl)pyridin-2-yl]piperidin-1-yl}ethyl)-tetrahydro-2H-pyran-4-carboxamide], the half-life in data set [1] is 17 h; in data set [5], 13 h. Further, the Ki was 2.1 nM in [2], 44 nM in data set [7] and greater than 10000 nM in data set [9]. For the same compound, the “Metabolic stability of human liver microsome” value in [3] was 0.0075 mL/min/mg protein. For the same compound, the Emax was determined as 56% in [4] (setting [10]) and 92% in data set [8] (setting [10]). Further, the EC50 in [4] (setting [11]) was found to be 30.8 nM; in data set [8] (setting [11]), 82 nM. For the same compound, the serotonin content entry in [6] was “did not decrease the serotonin content”.
